Test results reported in patent publication US8895733B2 (Novartis AG, priority 2010, dated 2014).

Molecular target: T1, Nav 1.7 (Homo sapiens, UniProt Q15858)
T1 construct: expressed in transfected cells
Assay: Whole-cell voltage clamp electrophysiology, automated patch clamp (marker c in Table of Examples)
Format: cell-based
Settings: marker c = Automated patch clamp data; read-out: Nav 1.7 activity
Summary of the method: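 Human NaV1.7 currents were recorded by whole-cell automated patch clamp, on IonWorks Quattro or another automated platform, typically in perforated-patch configuration. The stimulus protocol was designed to probe block mainly of the inactivated state, with a typical sweep stepping from about −65 mV holding to −10 mV, then −100 mV.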

T1 sequence (Q15858 whole entry): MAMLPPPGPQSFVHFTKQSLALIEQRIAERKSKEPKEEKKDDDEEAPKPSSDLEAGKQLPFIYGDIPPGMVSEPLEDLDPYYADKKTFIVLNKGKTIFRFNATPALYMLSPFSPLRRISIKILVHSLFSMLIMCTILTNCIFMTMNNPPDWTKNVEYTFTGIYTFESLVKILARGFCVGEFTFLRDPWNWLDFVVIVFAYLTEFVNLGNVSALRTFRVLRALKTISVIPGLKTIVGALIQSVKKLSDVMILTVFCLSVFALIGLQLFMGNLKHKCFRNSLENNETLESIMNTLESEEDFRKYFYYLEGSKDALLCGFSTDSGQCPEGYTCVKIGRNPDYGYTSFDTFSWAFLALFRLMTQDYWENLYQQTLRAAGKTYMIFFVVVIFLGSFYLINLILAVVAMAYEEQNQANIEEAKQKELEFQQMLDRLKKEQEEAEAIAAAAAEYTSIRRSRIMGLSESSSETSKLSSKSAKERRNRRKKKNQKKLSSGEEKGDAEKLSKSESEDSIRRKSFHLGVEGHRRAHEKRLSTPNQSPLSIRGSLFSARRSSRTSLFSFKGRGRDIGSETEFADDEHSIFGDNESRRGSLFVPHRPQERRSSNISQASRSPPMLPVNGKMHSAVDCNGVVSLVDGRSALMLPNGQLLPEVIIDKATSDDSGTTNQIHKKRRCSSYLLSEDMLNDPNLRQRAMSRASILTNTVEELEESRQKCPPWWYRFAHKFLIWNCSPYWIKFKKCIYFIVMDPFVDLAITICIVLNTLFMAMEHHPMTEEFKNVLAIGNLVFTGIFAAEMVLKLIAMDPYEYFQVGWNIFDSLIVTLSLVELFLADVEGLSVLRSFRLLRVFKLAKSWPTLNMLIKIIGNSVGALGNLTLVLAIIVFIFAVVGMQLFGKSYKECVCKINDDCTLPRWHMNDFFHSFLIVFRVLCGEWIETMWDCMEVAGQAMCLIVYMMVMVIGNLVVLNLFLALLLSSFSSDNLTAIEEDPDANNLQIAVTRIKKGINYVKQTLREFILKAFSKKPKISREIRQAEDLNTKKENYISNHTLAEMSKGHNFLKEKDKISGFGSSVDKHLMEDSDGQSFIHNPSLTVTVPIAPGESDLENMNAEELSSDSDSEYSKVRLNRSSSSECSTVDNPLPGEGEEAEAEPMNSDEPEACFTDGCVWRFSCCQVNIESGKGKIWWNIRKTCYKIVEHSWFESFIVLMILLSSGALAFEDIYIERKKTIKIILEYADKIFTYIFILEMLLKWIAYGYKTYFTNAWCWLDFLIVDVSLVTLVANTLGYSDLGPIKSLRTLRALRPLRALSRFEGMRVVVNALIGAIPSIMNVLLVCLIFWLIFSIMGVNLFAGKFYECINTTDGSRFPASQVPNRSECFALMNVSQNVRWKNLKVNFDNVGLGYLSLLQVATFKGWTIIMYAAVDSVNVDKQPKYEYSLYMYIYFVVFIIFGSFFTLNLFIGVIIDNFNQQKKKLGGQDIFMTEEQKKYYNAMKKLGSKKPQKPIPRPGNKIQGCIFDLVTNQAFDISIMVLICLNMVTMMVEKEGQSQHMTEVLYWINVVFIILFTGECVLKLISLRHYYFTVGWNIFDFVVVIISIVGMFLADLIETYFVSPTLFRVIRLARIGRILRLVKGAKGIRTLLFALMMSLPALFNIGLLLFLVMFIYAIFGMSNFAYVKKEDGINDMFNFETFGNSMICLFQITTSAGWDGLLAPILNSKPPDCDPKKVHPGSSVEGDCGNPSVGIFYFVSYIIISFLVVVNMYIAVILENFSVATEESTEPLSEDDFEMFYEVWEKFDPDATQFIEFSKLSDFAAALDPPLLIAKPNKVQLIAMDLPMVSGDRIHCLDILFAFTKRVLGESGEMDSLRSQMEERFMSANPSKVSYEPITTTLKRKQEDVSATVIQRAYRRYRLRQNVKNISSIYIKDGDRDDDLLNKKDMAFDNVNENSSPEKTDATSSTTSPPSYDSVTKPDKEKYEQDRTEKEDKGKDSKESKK

Row | SMILES | IC50
1 | Nc1nc(Nc2ccccc2)nc(-c2noc(NC3CCCCC3)n2)n1 [Example 242, 6-[5-(cyclohexylamino)-1,2,4-oxadiazol-3-yl]-2-N-phenyl-1,3,5-triazine-2,4-diamine] | 5370 nM
2 | COC1(c2ccccc2)CCN(c2nc(-c3nc(N)nc(N(C)c4ccccc4)n3)no2)CC1 [Example 360, 6-[5-(4-methoxy-4-phenylpiperidin-1-yl)-1,2,4-oxadiazol-3-yl]-2-N-methyl-2-N-phenyl-1,3,5-triazine-2,4-diamine] | 2140 nM
3 | CN(c1ccccc1)c1nc(N)nc(-c2noc(C(=O)N3C[C@@H]4[C@@H](COCC(F)(F)F)[C@@H]4C3)n2)n1 [Example 402, 2-N-methyl-2-N-phenyl-6-(5-{[-6-[(2,2,2-trifluoroethoxy)methyl]-3-azabicyclo[3.1.0]hexan-3-yl]carbonyl}-1,2,4-oxadiazol-3-yl)-1,3,5-triazine-2,4-diamine] | 3970 nM
4 | CN(c1ccccc1)c1nc(N)nc(-c2noc(N3CC[C@@H](Oc4ccccc4)C3)n2)n1 [Example 434, 2-N-methyl-6-{5-[(3R)-3-phenoxypyrrolidin-1-yl]-1,2,4-oxadiazol-3-yl}-2-N-phenyl-1,3,5-triazine-2,4-diamine] | 140 nM
5 | Nc1nc(Nc2cc(F)ccc2F)nc(-c2noc(-c3ccc(OCC(F)(F)F)nc3)n2)n1 [Example 343, 2-N-(2,5-difluorophenyl)-6-{5-[6-(2,2,2-trifluoroethoxy)pyridin-3-yl]-1,2,4-oxadiazol-3-yl}-1,3,5-triazine-2,4-diamine] | 195 nM
6 | CN(c1ccccc1)c1nc(N)nc(-c2noc(C3CCN(C(=O)OC(C)(C)C)CC3)n2)n1 [Example 505, tert-butyl 4-(3-{4-amino-6-[methyl(phenyl)amino]-1,3,5-triazin-2-yl}-1,2,4-oxadiazol-5-yl)piperidine-1-carboxylate] | 982 nM
7 | Nc1nc(Nc2cccc(F)c2)nc(-c2noc(C(=O)N[C@@H]3CCOC3)n2)n1 [Example 233, 3-{4-amino-6-[(3-fluorophenyl)amino]-1,3,5-triazin-2-yl}-N-[(3R)-oxolan-3-yl]-1,2,4-oxadiazole-5-carboxamide] | 5660 nM
8 | NC(=O)c1nc(-c2nc(N)nc(Nc3ccccc3)n2)no1 [Example 222, 3-[4-amino-6-(phenylamino)-1,3,5-triazin-2-yl]-1,2,4-oxadiazole-5-carboxamide] | 7710 nM
9 | CN(c1ccccc1)c1nc(N)nc(-c2noc(C3CCN(S(=O)(=O)CC(F)(F)F)C3)n2)n1 (stereo not shown) [Example 202, 2-N-methyl-2-N-phenyl-6-(5-{1-[(2,2,2-trifluoroethane)sulfonyl]pyrrolidin-3-yl}-1,2,4-oxadiazol-3-yl)-1,3,5-triazine-2,4-diamine] | 1790 nM
10 | CN(c1ccccc1)c1nc(N)nc(-c2noc(C(=O)N3C[C@@H]4[C@@H](COCCC(F)(F)F)[C@@H]4C3)n2)n1 [Example 403, 2-N-methyl-2-N-phenyl-6-(5-{[-6-[(3,3,3-trifluoropropoxy)methyl]-3-azabicyclo[3.1.0]hexan-3-yl]carbonyl}-1,2,4-oxadiazol-3-yl)-1,3,5-triazine-2,4-diamine] | 1290 nM
11 | CN(c1ccccc1)c1nc(N)nc(-c2noc(C3CCC(Oc4ccccc4)CC3)n2)n1 (stereo not shown) [Example 429, 2-N-methyl-6-[5-(4-phenoxycyclohexyl)-1,2,4-oxadiazol-3-yl]-2-N-phenyl-1,3,5-triazine-2,4-diamine] | 289 nM
12 | CN(c1ccccc1)c1nc(N)nc(-c2noc(N3CCC(COCCC(F)(F)F)CC3)n2)n1 [Example 501, 2-N-methyl-2-N-phenyl-6-(5-{4-[(3,3,3-trifluoropropoxy)methyl]piperidin-1-yl}-1,2,4-oxadiazol-3-yl)-1,3,5-triazine-2,4-diamine] | 344 nM
13 | CN(c1ccccc1)c1nc(N)nc(-c2noc(-c3ncccc3OC3CCC3)n2)n1 [Example 491, 6-[5-(3-cyclobutoxypyridin-2-yl)-1,2,4-oxadiazol-3-yl]-2-N-methyl-2-N-phenyl-1,3,5-triazine-2,4-diamine] | 1040 nM

Results, then the compound that gave them:

Row | IC50 | SMILES
14 | 410 nM | CN(c1ccc(F)c(Cl)c1)c1nc(N)nc(-c2noc(-c3ccc(OCC(F)(F)F)nc3)n2)n1 [Example 414, 2-N-(3-Chloro-4-fluorophenyl)-2-N-methyl-6-{5-[6-(2,2,2-trifluoroethoxy)pyridin-3-yl]-1,2,4-oxadiazol-3-yl}-1,3,5-triazine-2,4-diamine]
15 | 1620 nM | CN1CCC(Oc2ccc(-c3nc(-c4nc(N)nc(N(C)c5ccccc5)n4)no3)cn2)C1 (stereo not shown) [Example 364, 2-N-methyl-6-(5-{6-[(1-methylpyrrolidin-3-yl)oxy]pyridin-3-yl}-1,2,4-oxadiazol-3-yl)-2-N-phenyl-1,3,5-triazine-2,4-diamine]
16 | 149 nM | CN(c1ccccc1)c1nc(N)nc(-c2noc(-c3ccc(CS(=O)(=O)CC(F)(F)F)nc3)n2)n1 [Example 321, 2-N-methyl-2-N-phenyl-6-[5-(6-{[(2,2,2-trifluoroethane)sulfonyl]methyl}pyridin-3-yl)-1,2,4-oxadiazol-3-yl]-1,3,5-triazine-2,4-diamine]
17 | 711 nM | CN(c1ccccc1)c1nc(N)nc(-c2noc(-c3ccc(C(N)=O)nc3)n2)n1 [Example 284, 5-(3-{4-Amino-6-[methyl(phenyl)amino]-1,3,5-triazin-2-yl}-1,2,4-oxadiazol-5-yl)pyridine-2-carboxamide]
18 | 232 nM | CN(c1ccccc1)c1nc(N)nc(-c2noc(-c3ncccc3C(=O)OCC3CC3)n2)n1 [Example 377]
19 | 6290 nM | CN(c1ccc(F)nc1)c1nc(N)nc(-c2noc(-c3ccc(OCC(F)(F)F)nc3)n2)n1 [Example 432, 2-N-(6-Fluoropyridin-3-yl)-2-N-methyl-6-{5-[6-(2,2,2-trifluoroethoxy)pyridin-3-yl]-1,2,4-oxadiazol-3-yl}-1,3,5-triazine-2,4-diamine]
20 | 2770 nM | CN(c1ccccc1)c1nc(N)nc(-c2noc(-c3ccc(C[S+]([O-])CC(F)(F)F)nc3)n2)n1 (stereo not shown) [Example 317, 2-N-Methyl-2-N-phenyl-6-[5-(6-{[(2,2,2-trifluoroethane)sulfinyl]methyl}pyridin-3-yl)-1,2,4-oxadiazol-3-yl]-1,3,5-triazine-2,4-diamine]
21 | 52.5 nM | CN(c1ccccc1)c1nc(N)nc(-c2noc(-c3ccc(OCCOCC(F)(F)F)nc3)n2)n1 [Example 366, 2-N-Methyl-2-N-phenyl-6-(5-{6-[2-(2,2,2-trifluoroethoxy)ethoxy]pyridin-3-yl}-1,2,4-oxadiazol-3-yl)-1,3,5-triazine-2,4-diamine]
22 | 619 nM | CN(c1ccccc1)c1nc(N)nc(-c2noc(-c3ccc(CNC4CCC4)nc3)n2)n1 [Example 300, 6-(5-{6-[(cyclobutylamino)methyl]pyridin-3-yl}-1,2,4-oxadiazol-3-yl)-2-N-methyl-2-N-phenyl-1,3,5-triazine-2,4-diamine]

Same assay, conditions: marker c: Automated patch clamp data; read-out: Nav 1.7 activity

Row | SMILES | IC50
23 | CN(c1ccccc1)c1nc(N)nc(-c2noc(C3CCOCC3)n2)n1 [Example 57, N-Methyl-N-phenyl-6-[5-(tetrahydro-pyran-4-yl)-[1,2,4]oxadiazol-3-yl]-[1,3,5]triazine-2,4-diamine] | 1140 nM
24 | COc1ccc(-c2nc(-c3nc(N)nc(N(C)c4cccc(C)c4)n3)no2)c(OC)c1 [Example 188, 6-[5-(2,4-dimethoxyphenyl)-1,2,4-oxadiazol-3-yl]-2-N-methyl-2-N-(3-methylphenyl)-1,3,5-triazine-2,4-diamine] | 7630 nM
25 | CN(c1ccccc1)c1nc(N)nc(-c2noc(N3CCC(CSc4ccccc4)CC3)n2)n1 [Example 176, 2-N-methyl-2-N-phenyl-6-(5-{4-[(phenylsulfanyl)methyl]piperidin-1-yl}-1,2,4-oxadiazol-3-yl)-1,3,5-triazine-2,4-diamine] | 223 nM

Second part, the compound after the results:

Row | IC50 | SMILES
26 | 782 nM | Cc1ccsc1-c1nc(-c2nc(N)nc(N(C)c3ccccc3)n2)no1 [Example 126, N-Methyl-6-[5-(3-methyl-thiophen-2-yl)-[1,2,4]oxadiazol-3-yl]-N-phenyl-[1,3,5]triazine-2,4-diamine]
27 | 5220 nM | CN(c1ccccc1)c1nc(N)nc(-c2noc(-c3ncc[nH]3)n2)n1 [Example 65, 6-(5-Imidazol-2-yl-[1,2,4]oxadiazol-3-yl)-N-methyl-N-phenyl-[1,3,5]triazine-2,4-diamine]
28 | 1930 nM | CN(c1ccccc1)c1nc(N)nc(-c2noc(-c3cc4ccccc4o3)n2)n1 [Example 64, 6-(5-Benzofuran-2-yl-[1,2,4]oxadiazol-3-yl)-N-methyl-N-phenyl-[1,3,5]triazine-2,4-diamine]
29 | 1620 nM | Cc1cccnc1-c1nc(-c2nc(N)nc(N(C)c3ccccc3)n2)no1 [Example 152, 2-N-methyl-6-[5-(3-methylpyridin-2-yl)-1,2,4-oxadiazol-3-yl]-2-N-phenyl-1,3,5-triazine-2,4-diamine]
30 | 813 nM | CCN(c1ccccc1)c1nc(N)nc(-c2noc(-c3cccc(OC)c3)n2)n1 [Example 94, N-Ethyl-6-[5-(3-methoxy-phenyl)-[1,2,4]oxadiazol-3-yl]-N-phenyl-[1,3,5]triazine-2,4-diamine]
31 | 123 nM | CCN(c1ccccc1)c1nc(N)nc(-c2noc(-c3ccccc3Cl)n2)n1 [Example 192, 6-[5-(2-chlorophenyl)-1,2,4-oxadiazol-3-yl]-2-N-ethyl-2-N-phenyl-1,3,5-triazine-2,4-diamine]
32 | 3570 nM | COCCOCc1ccc(-c2nc(-c3nc(N)nc(N(C)c4ccccc4)n3)no2)cn1 [Example 143, 6-{5-[6-(2-Methoxy-ethoxymethyl)-pyridin-3-yl]-[1,2,4]oxadiazol-3-yl}-N-methyl-N-phenyl-[1,3,5]triazine-2,4-diamine]
33 | 955 nM | Cc1cccc(-c2nc(-c3nc(N)nc(N(C)c4ccccc4)n3)no2)c1 [Example 28, N-Methyl-N-phenyl-6-(5-m-tolyl-[1,2,4]oxadiazol-3-yl)-[1,3,5]triazine-2,4-diamine]
34 | 3380 nM | CN(c1ccccc1)c1nc(N)nc(-c2noc(-c3cccc4c3OCC4)n2)n1 [Example 63, 6-[5-(2,3-Dihydro-benzofuran-7-yl)-[1,2,4]oxadiazol-3-yl]-N-methyl-N-phenyl-[1,3,5]triazine-2,4-diamine]
